Patent US7544512B2, “Method of producing insulinotropic GLP-1 (7-36) polypeptide and/or GLP-1 analogs” (Shanhai Hua Yi Bio-Tech Lab, priority 2001, dated 2009)

Tests used:
Assay type in all cases: in vivo
insulin secretion = assay: Effect on insulin secretion in mice (serum insulin, radioimmunoassay); conditions: healthy C57/BL/6J mice, 2 μg injected into abdominal cavity, blood at 0, 5, 15, 30, 60 min, FIG. 9
Method: Healthy C57/BL/6J mice were purchased from the Shanghai Laboratory Animal Center of Chinese Academy of Sciences. The mice were divided into three groups with 6 mice in each group. The placebo group of mice received 200 μl of saline injected into their abdominal cavity, while the testing group received 2 μg of GLP-1 (7-36) and the positive control group received 2 μg of GLP-1 (7-36)NH2 (BACHEM). The moment when the animals received the injection was set as time zero. 50 μl of blood were drawn from the veins at angulus oculi with a graduated capillary which had been rinsed with heparin and then dried. The blood samples were subsequently drawn at 5, 15, 30 and 60 minutes. The blood samples were immediately mixed with 50 μl of saline in a micro-centrifuge tube. The mixture was centrifuged at 3000 rpm to remove erythrocytes. The serum was used to measure insulin concentration.
The radioimmunoassay kit (Shanghai Institute of Biological Products, Chinese Ministry of Health) for insulin was used to measure the effect of GLP-1 (7-36) on insulin secretion. […] This observation indicates the administration of either GLP-1 (7-36) or GLP-1 (7-36)NH2 enhances the secretion of insulin in mice.

blood glucose [1] = assay: Effect on blood glucose level in glucose-loaded C57/BL/6J mice; conditions: C57/BL/6J mice fasted overnight, 200 μl of 40% glucose plus 2 μg peptide into abdominal cavity, 0, 30, 60, 120 min, FIG. 11
Method: Healthy C57/BL/6J mice were purchased from Shanghai Laboratory Animal Center of Chinese Academy of Sciences. The mice were divided into four groups with 6 mice in each group. Mice fasted overnight were injected by abdominal cavity. The placebo group were injected with 200 μl of 40% glucose solution, the testing group were injected with 200 μl of 40% glucose solution plus 2 μg of GLP-1 (7-36), the positive control group(I) were injected with 200 μl of 40% glucose solution plus 2 μg of GLP-1 (7-36)NH2 (Sigma), and the positive control group(II) were injected with 200 μl of 40% glucose solution plus 2 μg of GLP-1 (7-37) (Sigma). The moment when the animals received the injection was set as time zero. After the injection, 20 μl of blood sample were immediately drawn from optic sinus of each mouse with a heparin-treated capillary. The blood samples were immediately mixed with 300 μl of saline in a micro-centrifuge tube. The mixture was centrifuged at 3000 rpm to remove erythrocytes. The serum was used to measure serum glucose concentration. This procedure was repeated at the 30th, 60th and 120th minutes.
The serum blood glucose concentration was measured by a commercial kit (Shanghai Institute of Biological Products, Chinese Ministry of Health).

blood glucose [2] = assay: Comparison of reducing blood glucose effect in Kun Ming mice; conditions: fasted 4 hours, glucose 2 g/kg intraperitoneally, 50 ng/Kg peptide, 30 minutes; for Rate (reduction of blood glucose): versus control
Method: Kun Ming mice (40 in total, male, 23 g body weight/mouse) were divided into 4 groups. After fasting for 4 hours, each mouse was injected with glucose (2 g/kg body weight) intraperitoneally. Then mice in the testing group were rejected with 50 ng/Kg of GLP-1 (7-36), GLP-1 (7-36)NH2 (BACHEM) and GLP-1 (7-37)COOH (BACHEM) respectively, while mice in the control group were rejected with 0.9% NaCl saline. Blood sample was collected at the zero time and 30 minutes later for the analysis.

C-peptide secretion = assay: Effect on C-peptide secretion in mice (serum C-peptide, radioimmunoassay); conditions: C57/BL/6J mice, 10 μg injected into abdominal cavity, FIG. 10
Method: As described in Example 14, C57/BL/6J mice were divided into two groups with the placebo group receiving 200 μl of saline injected into abdominal cavity and the testing group receiving 10 μg of GLP-1 (7-36). A radioimmunoassay kit (Shanghai Institute of Biological Products, Chinese Ministry of Health) for C-peptide was used to measure the effect of GLP-1 (7-36) on C-peptide secretion.

Substance | serum insulin concentration (insulin secretion) | serum blood glucose concentration (blood glucose [1]) | Blood Glucose (blood glucose [2]) [mmol/L] | Rate (reduction of blood glucose) (blood glucose [2]) [%] | serum C-peptide concentration (C-peptide secretion)
GLP-1 (7-36)NH2: natural GLP-1 form of 30 amino acid residues with C-terminal amidated; positive control from BACHEM or Sigma | significant increase | no obvious rise from the normal level | 8.69 | 36.8 | –
GLP-1 (7-37): natural GLP-1 form of 31 amino acid residues; positive control from Sigma or BACHEM (HAEGTFTSDVSSYLEGQAAKEFIAWLVKGRG; homo sapiens) | – | no obvious rise from the normal level | 6.77 | 50.7 | –
His-Ala-Glu-Gly-Thr-Phe-Thr-Ser-Asp-Val-Ser-Ser-Tyr-Leu-Glu-Gly-Gln-Ala-Ala-Lys-Glu-Phe-Ile-Ala-Trp-Leu-Val-Lys-Gly-Arg−OH (HAEGTFTSDVSSYLEGQAAKEFIAWLVKGR; homo sapiens) [GLP-1 (7-36)] | significant increase | no obvious rise from the normal level | 6.51 | 50.4 | significant increase
